From US6630124B1, “Combination therapy with VIP antagonist” (Ramot-University Authority for Applied Research and …, priority 1998, dated 2003)
Where a SMILES comes first, the peptide text is derived from it. [ ]: non-standard residue; d: D form. The star is where a group is joined. Stearoyl = CCCCCCCCCCCCCCCCCC(=O)*; Nle = CCCC[C@H](N)C(=O)O

What was measured:
[1] = tested on: panel of 56 cancer cell lines; assay: NCI "compare analysis", panel of 56 cancer cell lines; format: cell-based
Text: The mean value±S. D. of 8 determinations is indicated; *, p<0.05 using student's t-test. (SN)VIPhyb inhibited the growth of leukemia (CCRF-CEM), HL-60(TB), K-562, MOLT-4, RPMI-8226, SR), non-small cell lung cancer (A549, EKVX, HOP-62, HOP-92, H23, H322M, H460 and H522), colon cancer (COLO205, HCC-2998, HCT-116, HT29, KM12, SW-620), CNS cancer (SF-268, SF-295, SF-539, SNB-19, U251), melanoma (LOX IMVI, MALME-3M, M14, SK-MEL-2, SK-MEL-28, SK-MEL-5, UACC-257, UACC-62), ovarian cancer (IGROV1, OVCAR-3, OVCAR-5, OVCAR-8, SK-OV-3), renal cancer (786-0, A498, CAKI-1, RXF 393, SM12C, TK-l0), prostate cancer (PC-3, DU-145) and breast cancer (MCF-7, MDA-MB-231, HS 578T, MDA-MB-435, MDA-N and T-47D).

MCF-7 cells = assay: MTT colorimetric assay, breast cancer cells (Example 6); format: cell-based; details: compared with VIPhyb
Method: The ability of VIP receptor antagonists to alter the growth of breast cancer cells was investigated in vitro using the MTT colorimetric. The semiautomated MTT assay measures reduction of a tetrazolium compound by tumor cells to formazan. The optical density at 570 nm was determined for 8 wells at each inhibitor concentration. Seeding densities were 5×10^4 cells/well and cells were grown in 96 well plates for 5 days.

[2] = tested on: MCF-7 breast cancer cells; assay: MTT assay, Taxol with or without SNVIPhyb; format: cell-based; details: 10 μM SNVIPhyb, MTT assay
Text: The ability of SNVIPhyb to inhibit cancer growth was investigated.

[3] = tested on: NCI-H727 non-small cell lung cancer (carcinoid); assay: MTS cell proliferation assay, SNH and chemotherapy; format: cell-based; details: 8 μM SNH, 6 hour incubation, then 66 hour fresh medium
Method: NCI-H727 and LNCaP were grown in RPMI 1640 medium supplemented with 10% heat inactivated FCS, L-glutamine and antibiotics. HT-29 and CT-26 were grown in DMEM medium supplemented with 10% heat-inactivated FCS (fetal calf serum), L-glutamine and antibiotics. The cells were cultured in 5% CO2/95% air at […] and used during their exponential growth phase. Routinely, the cells which are adherent, were split when a subconfluent monolayer was formed. In different experiments, various concentration of FCS were used. For growth inhibition experiments, subconfluent adherent cells were washed with PBS and treated with trypsin/versene. The cells were pelleted and resuspended in medium to a final concentration of 75,000 cells/mL for NCI-H727. 50,000 cells/mL for LNCaP and HT-29 and 25000 cells/mL for CT-26. These different concentrations were used in order to avoid confluence in the wells at the end of the experiment and correspond to the different doubling times of the cell lines. On day 0, cells suspensions […] were dispensed using a multi-channel pipet into the individual wells of a 96-well tissue culture plate (Nuncion, Nunc Brand Products). […] Cells were incubated for 24 hours in a humidified atmosphere of 95% air/5% CO2 at 37° C. before treatment. On day 1, the cells were treated with different drugs and schedules and maintained under the same conditions. On day 4, viable cell number was determined by a modified MTT assay i.e., MTS non-radioactive cell proliferation assay (Promega). […] Results were finally expressed as percentage of the control, which was obtained from the samples with no drug treatment. Dose-response curves were plotted using a Sigma-Plot software and statistically analyzed using Student test. To determine the effect of the lipophilic VIP antagonist SNH on cell proliferation, cells plated in 96-well microplates for 24 hours as described, were treated with various concentrations of SNH. The peptide was diluted in PBS and […] of the peptide solution was added to each well for a final concentration of the peptide between 10^−510^−9 M. The solvent was added to the control wells. […] A dose-response curve was obtained at concentrations ranging from 2 μM-10 μM (see, FIG. 2). […] The effects of an 8 hours treatment were slightly less, showing that most of the effect is in the initial hours of exposure and much more dose than time dependent. […] For the experiments with the combinations of VIP antagonists and chemotherapeutic agents, on day 0, the cells were plated for 24 hours in medium supplemented with 5% FCS. On day 1, the peptide was added to the wells followed 1 hour later by the chemotherapeutic agents. […] The chemotherapeutic drugs were tested over 7 concentrations, covering as much as possible of the dose response curve of each individual drug. 24 hours later, the medium was exchanged and the cells incubated under the same conditions for another 48 hours. On day 4 the number of viable cells was determined by MTS assay.

[4] = tested on: nonsmall cell lung cancer line; details: 2 mM of the antagonist
Method: Assays were performed with cell lines derived from colon cancer and prostate cancer. Proliferation was assessed using the MTS colorimetric assay of mitochondrial function for living cells. The VIP antagonist (stearyl-Nle17-neurotensis 6-11 VIP 7-28) was used.

SMILES: CCCCCCCCCCCCCCCCCC(=O)N[C@@H](CCCCN)C(=O)N1CCC[C@H]1C(=O)N[C@@H](CCCNC(=N)N)C(=O)N[C@@H](CCCNC(=N)N)C(=O)N1CCC[C@H]1C(=O)N[C@@H](Cc1ccc(O)cc1)C(=O)N[C@H](C(=O)N[C@@H](CC(=O)O)C(=O)N[C@@H](CC(N)=O)C(=O)N[C@@H](Cc1ccc(O)cc1)C(=O)N[C@H](C(=O)N[C@@H](CCCNC(=N)N)C(=O)N[C@@H](CC(C)C)C(=O)N[C@@H](CCCNC(=N)N)C(=O)N[C@@H](CCCCN)C(=O)N[C@@H](CCC(N)=O)C(=O)N[C@@H](CCCC)C(=O)N[C@@H](C)C(=O)N[C@H](C(=O)N[C@@H](CCCCN)C(=O)N[C@@H](CCCCN)C(=O)N[C@@H](Cc1ccc(O)cc1)C(=O)N[C@@H](CC(C)C)C(=O)N[C@@H](CC(N)=O)C(=O)N[C@@H](CO)C(=O)N[C@H](C(=O)N[C@@H](CC(C)C)C(=O)N[C@@H](CC(N)=O)C(N)=O)[C@@H](C)CC)C(C)C)[C@@H](C)O)[C@@H](C)O [SNH] (Stearoyl-KPRRPYTDNYTRLRKQ[Nle]AVKKYLNSILN-NH2)
- cell lines significantly inhibited ([1]; CNS cancer): 5/5
- cell lines whose proliferation was significantly inhibited ([1]; all cell lines tested): 51 of 56
- cell lines significantly inhibited ([1]; breast cancer): 6/8
- cell lines significantly inhibited ([1]; colon cancer): 6/7
- cell lines significantly inhibited ([1]; leukemia): 6/6
- cell lines significantly inhibited ([1]; melanoma): 8/8
- cell lines significantly inhibited ([1]; non-small cell lung cancer): 7/7
- cell lines significantly inhibited ([1]; ovarian cancer): 5/6
- cell lines significantly inhibited ([1]; prostate cancer): 2/2
- cell lines significantly inhibited ([1]; renal cancer): 6/7
- relative potency as inhibitor of proliferation (MCF-7 cells): more potent inhibitor than VIPhyb
- effect on MCF-7 breast cancer proliferation [2]: little effect
- reduction in viable cells [3]: 40%
- growth inhibition [4]: 15-20%
